Data: publication PMC8596998, “The Introduction of a Cysteine Residue Modulates The Mechanical Properties of Aromatic‐Based Solid Aggregates and Self‐Supporting Hydrogels” (Chemistry (Weinheim an Der Bergstrasse, Germany), 2021)
Values after ≈ are worked out from the molar mass of the structure shown. Square brackets hold non-standard residues; d marks the D form. Ends that are not written are not given here. Peptide text beside a SMILES is read from it. AEEA = NCCOCCOCC(=O)O

Experiments:
[1] = Water solubility of peptides; assay type: physicochemical
Text: Both the peptide derivatives were synthetized using solid phase peptide synthesis protocols (SPPS) with Fmoc/OtBu strategy. After their purification by RP‐HPLC chromatography, peptides were characterized by ESI mass spectrometry (see Figure S8). The logP values, estimated using the ACD Lab ChemSketch software, predict the intrinsic water solubility of peptides. […] A diametric behaviour was noted using the organic solvent 1,1,1,3,3,3‐hexafluoro‐isopropan‐2‐ol (HFIP).[[11a], [12]] Indeed, in HFIP the peptide FYFCFYF is highly soluble (up to 200 mg/mL), whereas PEG8‐FYFCFYF is moderately soluble (up to 5 mg/mL). According to their different solubility, peptide solutions were prepared using two approaches: PEG8‐FYFCFYF solutions were prepared by a direct dissolution of the lyophilized powder in water, whereas FYFCFYF ones were obtained by dilution in water of a HFIP stock solution (100 mg/mL). […] Peptide concentration was then analytically quantified using UV‐Vis spectroscopy. Preliminarily, we evaluated the capability of both the peptides to aggregate in solution (at 2.0 mg/mL) using the Dynamic Light Scattering (DLS) technique. […] The formation of nanoarchitectures was further investigated by fluorescence spectroscopy. Despite the presence of four Phe residues in the peptides, their self‐assembling propensity cannot be evaluated by simply considering the Phe excimer formation. […]

[2] = Gelification, inverted test tube (CGC, gelation time, shelf stability, syneresis); assay type: physicochemical
Text: Interconnected fibers network can generate self‐supporting hydrogels as a consequence of additional physical cross‐linking phenomena or chemical modifications. In the specific case of peptide‐based HGs, these materials are formed by further entanglement of supramolecular fibrillary structures, which can be induced by increasing the total sample concentration, and as a consequence, the number of fibers and their mutual contacts.[21] During the preparation of FYFCFYF solutions, we observed a viscosity degree that increases proportionally to the peptide concentration. […] As reported in Figure S12, the critical gelation concentration (CGC) for FYFCFYF can be identified in the range 0.5 wt%<CGC<1.0 wt%. […] However, the characterization of others analogues of (FY)3 and PEG8‐(FY)3 [eg. (F‐Dopa)3 and (Nal‐Dopa)3 and their PEGylated versions PEG8‐(F‐Dopa)3 and PEG8‐(Nal‐Dopa)3] highlighted a diametrically opposed behavior respect to (FY)3.[10] All these evidences point out the importance of the hydrophilic/hydrophobic balance in the peptide sequence in the gelification process. Moreover, it is possible that the Cys side chain plays a role in the confinement and retention of water molecules in the gel. The stability of the FYFCFYF hydrogel (macroscopically evaluated in terms of homogeneity, opacity and reproducibility) and its capability to hold water (as difference between the weight of the matrix before and after an incubation in water overnight at room temperature) were evaluated by the swelling value q (See Equation (1)).[22] […] The shelf stability was also evaluated via inverted test tube. […]
The formation of an additional chemical network affects also on the CGC and swelling features. […] The efficiency of oxidation procedure was evaluated using the well‐assessed Ellman's test.[24] Ellman's reagent (5,5’‐dithio‐bis‐(2‐nitrobenzoic acid)) also known as DTNB, is a chromogenic compound used to quantify free sulfhydryl groups in solution. […] Thus, free thiol concentration can be indirectly determined by TNB UV‐Vis absorption at 412 nm. […]

Row | solubility [1] [µg/mL] | shelf stability ([2]; hydrogel 1.0 wt%) [days] | shelf stability ([2]; hydrogel 1.5 wt%) | shelf stability ([2]; hydrogel 2.0 wt%) | Compound
1 | ~10000 (≈ 6.19 mM) | – | – | – | NCCOCCOCC(=O)NCCOCCOCC(=O)NCCOCCOCC(=O)NCCOCCOCC(=O)N[C@@H](Cc1ccccc1)C(=O)N[C@@H](Cc1ccc(O)cc1)C(=O)N[C@@H](Cc1ccccc1)C(=O)N[C@@H](CS)C(=O)N[C@@H](Cc1ccccc1)C(=O)N[C@@H](Cc1ccc(O)cc1)C(=O)N[C@@H](Cc1ccccc1)C(N)=O [PEG8‐FYFCFYF] (H-[AEEA][AEEA][AEEA][AEEA]FYFCFYF-NH2)
2 | 240 | 20 | up to 40 days | up to 65 days | FYFCFYF-NH2 [FYFCFYF]
